Results as given in ChEMBL document CHEMBL1135137, “Synthesis and pharmacological characterization of a potent, orally active p38 kinase inhibitor” (Bioorg Med Chem Lett, 2002).
Converted amounts (≈) assume the structure as drawn.

Tests used:
SW1353 = assay: TNF-alpha-induced IL-6 production in SW1353 cells; assay type: functional, cell-based; details: Homo sapiens
[1] = molecular target: Mitogen-activated protein kinase 14 (Homo sapiens, UniProt Q16539); assay: Inhibitory activity against Mitogen-activated protein kinase p38 alpha 2
[2] = Solubility at pH 2.0; assay type: physicochemical; details: buffer
Mus musculus [3] = assay: Percent inhibition of TNF-alpha-induced IL-6 production at 100 mg/kg peroral dose in mice; assay type: functional; details: route oral
Mus musculus [4] = assay: Percent inhibition of TNF-alpha-induced IL-6 production at 50 mg/kg peroral dose in mice; assay type: functional; details: route oral
[5] = Solubility at pH 7.5; assay type: physicochemical; details: buffer
Mus musculus [6] = assay: Effect in murine model of arthritis onset in mice immunized with bovine type II collagen at 30 mg/kg; Number of paws affected; assay type: functional
Mus musculus [7] = assay: Effect on LPS-induced TNF-alpha production in mice at 50 mg/kg peroral dose; assay type: functional; details: route oral
[8] = molecular target: Epidermal growth factor receptor (Homo sapiens) (UniProt P00533); assay: Inhibition of Epidermal growth factor receptor at 10 uM
Mus musculus [9] = assay: Effect on LPS-induced TNF-alpha production in mice at 20 mg/kg peroral dose; assay type: functional; details: route oral
Mus musculus [10] = assay: Effect in murine model of arthritis onset in mice immunized with bovine type II collagen at 10 mg/kg; Histopathology in interstitial edema; assay type: functional
Mus musculus [11] = assay: Effect in murine model of arthritis onset in mice immunized with bovine type II collagen at 10 mg/kg; Histopathology in inflammatory cell; assay type: functional
[12] = molecular target: Tyrosine-protein kinase Fyn (Homo sapiens) (UniProt P06241); assay: Inhibition of p59 Fyn tyrosine kinase at 10 uM
[13] = molecular target: Receptor tyrosine-protein kinase erbB-2 (Homo sapiens, UniProt P04626); assay: Inhibition of human epidermal growth factor receptor-2
[14] = molecular target: Mitogen-activated protein kinase 11 (Homo sapiens, UniProt Q15759); assay: Inhibition of Mitogen-activated protein kinase p38 beta
[15] = molecular target: Tyrosine-protein kinase Lck (Homo sapiens) (UniProt P06239); assay: Inhibition of p59 Lck tyrosine kinase at 10 uM
Mus musculus [16] = assay: Percentage inhibition of LPS-induced TNF-alpha production in mice at 10 mg/kg peroral dose; assay type: functional; details: route oral
Mus musculus [17] = assay: Percentage inhibition of LPS-induced TNF-alpha production in mice at 50 mg/kg peroral dose; assay type: functional; details: route oral
Mus musculus [18] = assay: Effect in murine model of arthritis onset in mice immunized with bovine type II collagen at 3 mg/kg; Histopathology in interstitial edema; assay type: functional
Mus musculus [19] = assay: Effect in murine model of arthritis onset in mice immunized with bovine type II collagen at 3 mg/kg; Number of paws affected; assay type: functional
[20] = molecular target: Protein kinase C beta type (Homo sapiens) (UniProt P05771); assay: Inhibition of Protein kinase C beta at 10 uM
[21] = molecular target: Mitogen-activated protein kinase 8 (Homo sapiens) (UniProt P45983); assay: Inhibition of c-Jun N-terminal kinase 1 at 0.5 uM
[22] = molecular target: Protein kinase C alpha type (Homo sapiens) (UniProt P17252); assay: Inhibition of Protein kinase C alpha at 10 uM
[23] = molecular target: Mitogen-activated protein kinase 3 (Homo sapiens) (UniProt P27361); assay: Inhibition of Mitogen-activated protein kinase 3 at 5 uM
Mus musculus [24] = assay: Effect in murine model of arthritis onset in mice immunized with bovine type II collagen at 30 mg/kg; Histopathology in interstitial edema; assay type: functional
[25] = molecular target: cAMP-dependent protein kinase (PKA) (Homo sapiens) (UniProt P22694+P17612+P22612); assay: Inhibition of Protein kinase A at 10 uM; assay type: protein assay
Mus musculus [26] = assay: Effect in murine model of arthritis onset in mice immunized with bovine type II collagen at 10 mg/kg; Number of paws affected; assay type: functional
[27] = molecular target: Protein kinase C gamma type (Homo sapiens) (UniProt P05129); assay: Inhibition of Protein kinase C gamma at 10 uM
Mus musculus [28] = assay: Effect on LPS-induced TNF-alpha production in mice at 10 mg/kg peroral dose; assay type: functional; details: route oral
[29] = molecular target: Tyrosine-protein kinase ABL (Homo sapiens) (UniProt P00519+P42684); assay: Inhibition of Abl tyrosine kinase at 5 uM; assay type: protein assay
Mus musculus [30] = assay: Effect in murine model of arthritis onset in mice immunized with bovine type II collagen at 30 mg/kg; Histopathology in inflammatory cell; assay type: functional
Mus musculus [31] = assay: Percentage inhibition of LPS-induced TNF-alpha production in mice at 20 mg/kg peroral dose; assay type: functional; details: route oral
Mus musculus [32] = assay: Percent inhibition of TNF-alpha-induced IL-6 production at 25 mg/kg peroral dose in mice; assay type: functional; details: route oral
Mus musculus [33] = assay: Effect in murine model of arthritis onset in mice immunized with bovine type II collagen at 3 mg/kg; Histopathology in inflammatory cell; assay type: functional
Mus musculus [34] = assay: Percent inhibition of TNF-alpha-induced IL-6 production at 10 mg/kg peroral dose in mice; assay type: functional; details: route oral
Mus musculus [35] = assay: Effect in murine model of arthritis onset in mice immunized with bovine type II collagen at 50 mg/kg; Histopathology in interstitial edema; assay type: functional
Mus musculus [36] = assay: Effect in murine model of arthritis onset in mice immunized with bovine type II collagen at 50 mg/kg; Histopathology in inflammatory cell; assay type: functional
Mus musculus [37] = species: Mus musculus; assay: animal or person; details: po, read-out: Inhibition
Mus musculus [38] = assay: Effect in murine model of arthritis onset in mice immunized with bovine type II collagen at 50 mg/kg; Number of paws affected; assay type: functional
Mus musculus [39] = assay: Effect on LPS-induced TNF-alpha production in mice at 30 mg/kg peroral dose; assay type: functional; details: route oral
Mus musculus [40] = species: Mus musculus; assay: animal or person; details: po, read-out: Inhibition; remark: listed apart in the source
Mus musculus [41] = species: Mus musculus; assay: animal or person; details: po, read-out: Inhibition; remark: listed apart in the source

Chain of Mitogen-activated protein kinase 14 (Q16539 whole entry): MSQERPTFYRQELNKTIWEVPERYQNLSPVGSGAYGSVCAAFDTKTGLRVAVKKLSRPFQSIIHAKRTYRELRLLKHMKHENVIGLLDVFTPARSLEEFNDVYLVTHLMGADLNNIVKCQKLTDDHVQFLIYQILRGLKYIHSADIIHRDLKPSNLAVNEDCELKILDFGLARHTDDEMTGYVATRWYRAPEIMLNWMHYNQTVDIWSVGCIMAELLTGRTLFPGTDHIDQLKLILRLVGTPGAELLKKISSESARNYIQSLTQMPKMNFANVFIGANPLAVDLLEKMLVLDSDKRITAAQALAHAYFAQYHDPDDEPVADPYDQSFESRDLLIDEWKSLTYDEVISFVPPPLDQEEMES
Chain of Protein kinase C beta type (Homo sapiens) (P05771 2-671 limits assumed): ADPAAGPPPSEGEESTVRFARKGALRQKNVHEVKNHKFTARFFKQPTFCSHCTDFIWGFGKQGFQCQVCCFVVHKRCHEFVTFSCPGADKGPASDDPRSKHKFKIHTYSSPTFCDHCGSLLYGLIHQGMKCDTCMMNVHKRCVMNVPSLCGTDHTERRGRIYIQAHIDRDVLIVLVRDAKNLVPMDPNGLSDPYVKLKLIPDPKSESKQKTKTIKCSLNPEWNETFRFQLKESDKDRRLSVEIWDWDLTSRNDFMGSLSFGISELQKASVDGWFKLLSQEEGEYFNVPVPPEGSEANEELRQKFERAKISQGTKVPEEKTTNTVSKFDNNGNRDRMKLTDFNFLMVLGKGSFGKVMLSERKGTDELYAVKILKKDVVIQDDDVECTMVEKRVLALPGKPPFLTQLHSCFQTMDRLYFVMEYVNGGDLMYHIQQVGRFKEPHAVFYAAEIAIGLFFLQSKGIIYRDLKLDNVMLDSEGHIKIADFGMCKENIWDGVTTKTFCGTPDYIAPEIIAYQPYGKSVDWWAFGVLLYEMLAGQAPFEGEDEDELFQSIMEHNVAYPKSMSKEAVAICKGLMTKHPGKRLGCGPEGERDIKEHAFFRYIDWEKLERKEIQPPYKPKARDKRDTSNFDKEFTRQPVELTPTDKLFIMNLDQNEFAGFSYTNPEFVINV
Chain of Receptor tyrosine-protein kinase erbB-2 (P04626 whole entry): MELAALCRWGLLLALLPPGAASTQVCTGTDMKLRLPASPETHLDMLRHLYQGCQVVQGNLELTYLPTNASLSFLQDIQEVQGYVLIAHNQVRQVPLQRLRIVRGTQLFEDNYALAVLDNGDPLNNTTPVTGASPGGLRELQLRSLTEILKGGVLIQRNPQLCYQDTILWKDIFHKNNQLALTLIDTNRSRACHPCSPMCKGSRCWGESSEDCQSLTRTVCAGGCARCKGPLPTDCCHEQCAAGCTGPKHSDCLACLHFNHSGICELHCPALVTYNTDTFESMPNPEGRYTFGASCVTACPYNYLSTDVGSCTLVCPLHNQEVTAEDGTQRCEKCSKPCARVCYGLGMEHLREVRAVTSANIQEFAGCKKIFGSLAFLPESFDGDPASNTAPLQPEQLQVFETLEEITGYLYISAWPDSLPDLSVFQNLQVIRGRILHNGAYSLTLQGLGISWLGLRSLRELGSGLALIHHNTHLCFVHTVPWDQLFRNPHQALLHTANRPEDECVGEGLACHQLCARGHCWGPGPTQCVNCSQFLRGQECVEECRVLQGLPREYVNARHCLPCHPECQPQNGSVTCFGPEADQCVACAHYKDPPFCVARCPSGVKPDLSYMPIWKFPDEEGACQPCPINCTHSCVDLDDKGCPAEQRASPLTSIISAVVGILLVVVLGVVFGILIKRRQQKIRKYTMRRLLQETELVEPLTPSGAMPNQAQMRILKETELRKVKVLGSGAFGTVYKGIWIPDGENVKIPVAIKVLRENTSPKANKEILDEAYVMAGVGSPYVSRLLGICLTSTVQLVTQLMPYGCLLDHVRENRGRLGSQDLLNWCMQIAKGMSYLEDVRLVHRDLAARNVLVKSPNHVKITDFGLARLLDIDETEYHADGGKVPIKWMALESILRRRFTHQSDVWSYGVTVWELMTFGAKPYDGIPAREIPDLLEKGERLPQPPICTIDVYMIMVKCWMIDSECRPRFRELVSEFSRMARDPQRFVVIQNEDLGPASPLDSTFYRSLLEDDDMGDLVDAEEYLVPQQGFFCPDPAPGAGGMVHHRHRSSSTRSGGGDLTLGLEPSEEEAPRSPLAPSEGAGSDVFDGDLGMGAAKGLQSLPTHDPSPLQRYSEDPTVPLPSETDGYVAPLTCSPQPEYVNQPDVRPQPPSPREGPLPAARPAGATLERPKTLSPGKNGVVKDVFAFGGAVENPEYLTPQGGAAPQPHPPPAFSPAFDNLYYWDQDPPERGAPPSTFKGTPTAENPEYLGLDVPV
Chain of Epidermal growth factor receptor (Homo sapiens) (P00533 whole entry): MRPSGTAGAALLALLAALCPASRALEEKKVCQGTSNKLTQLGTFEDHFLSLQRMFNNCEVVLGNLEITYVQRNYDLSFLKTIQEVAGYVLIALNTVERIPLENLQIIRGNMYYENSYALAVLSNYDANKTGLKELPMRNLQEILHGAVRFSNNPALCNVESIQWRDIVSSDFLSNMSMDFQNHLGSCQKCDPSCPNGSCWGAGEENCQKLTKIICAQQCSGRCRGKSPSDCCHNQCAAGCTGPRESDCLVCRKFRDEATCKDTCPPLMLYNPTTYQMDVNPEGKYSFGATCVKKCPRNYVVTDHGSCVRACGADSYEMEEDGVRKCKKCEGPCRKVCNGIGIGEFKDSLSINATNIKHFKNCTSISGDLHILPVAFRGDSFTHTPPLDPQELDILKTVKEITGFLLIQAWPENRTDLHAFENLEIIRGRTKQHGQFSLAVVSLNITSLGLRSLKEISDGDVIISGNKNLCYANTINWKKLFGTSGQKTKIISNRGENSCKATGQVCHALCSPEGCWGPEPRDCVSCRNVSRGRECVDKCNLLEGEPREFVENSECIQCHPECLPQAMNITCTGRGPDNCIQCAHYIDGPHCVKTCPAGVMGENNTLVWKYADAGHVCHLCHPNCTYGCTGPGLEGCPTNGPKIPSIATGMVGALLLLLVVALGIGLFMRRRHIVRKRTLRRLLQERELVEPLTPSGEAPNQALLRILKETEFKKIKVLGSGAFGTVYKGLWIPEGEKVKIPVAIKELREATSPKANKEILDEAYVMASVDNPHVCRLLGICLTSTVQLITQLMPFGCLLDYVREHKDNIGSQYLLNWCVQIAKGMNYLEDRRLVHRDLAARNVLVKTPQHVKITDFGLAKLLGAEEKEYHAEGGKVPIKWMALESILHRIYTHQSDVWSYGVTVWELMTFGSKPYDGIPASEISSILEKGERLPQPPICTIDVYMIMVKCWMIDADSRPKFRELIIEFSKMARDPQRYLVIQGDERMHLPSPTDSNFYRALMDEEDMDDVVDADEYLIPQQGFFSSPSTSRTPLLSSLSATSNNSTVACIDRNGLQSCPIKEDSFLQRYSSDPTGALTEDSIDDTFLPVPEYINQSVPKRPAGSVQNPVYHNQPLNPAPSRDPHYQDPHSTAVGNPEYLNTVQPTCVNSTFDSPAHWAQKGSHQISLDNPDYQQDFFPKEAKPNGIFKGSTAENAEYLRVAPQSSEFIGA
Chain of Mitogen-activated protein kinase 8 (Homo sapiens) (P45983 whole entry): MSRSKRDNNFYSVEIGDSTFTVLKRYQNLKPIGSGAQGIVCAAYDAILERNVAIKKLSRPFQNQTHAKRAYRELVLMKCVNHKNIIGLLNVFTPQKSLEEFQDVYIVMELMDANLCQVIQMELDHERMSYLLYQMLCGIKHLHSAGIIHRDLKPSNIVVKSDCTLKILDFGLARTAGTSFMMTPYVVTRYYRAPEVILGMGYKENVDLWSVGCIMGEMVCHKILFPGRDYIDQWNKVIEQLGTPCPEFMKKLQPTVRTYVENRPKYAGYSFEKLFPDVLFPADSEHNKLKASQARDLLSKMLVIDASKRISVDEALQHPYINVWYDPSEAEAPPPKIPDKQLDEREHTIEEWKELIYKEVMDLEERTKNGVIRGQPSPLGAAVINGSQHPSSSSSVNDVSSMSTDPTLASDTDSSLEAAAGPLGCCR
Chain of Mitogen-activated protein kinase 11 (Q15759 whole entry): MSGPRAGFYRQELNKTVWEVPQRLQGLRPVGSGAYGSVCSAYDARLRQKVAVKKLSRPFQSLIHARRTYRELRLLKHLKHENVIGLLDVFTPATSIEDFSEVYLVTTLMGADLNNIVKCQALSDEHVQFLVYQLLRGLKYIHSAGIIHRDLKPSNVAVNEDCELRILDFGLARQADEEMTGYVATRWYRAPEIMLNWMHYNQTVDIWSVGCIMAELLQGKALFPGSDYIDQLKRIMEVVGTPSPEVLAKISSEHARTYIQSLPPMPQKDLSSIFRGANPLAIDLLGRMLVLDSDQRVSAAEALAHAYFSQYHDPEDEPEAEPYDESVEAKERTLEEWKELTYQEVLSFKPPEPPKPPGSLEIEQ

Cn1nc(C(C)(C)C)cc1NC(=O)Nc1ccc(Cc2ccc(NC(=O)CCC(=O)O)cc2)cc1
IC50 (SW1353): > 2500 nM
IC50 [1]: 200 nM

CC(C)OC(=O)Nc1ccc(Oc2ccc(NC(=O)Nc3cc(C(C)(C)C)nn3C)cc2)cc1
IC50 (SW1353): 162 nM
IC50 [1]: 54 nM

CC(C)CC(=O)Nc1ccc(Cc2ccc(NC(=O)Nc3cc(C(C)(C)C)nn3C)cc2)cc1
IC50 (SW1353): 170 nM
IC50 [1]: 37 nM

CCCCOc1ccc(Sc2ccc(NC(=O)Nc3cc(C(C)(C)C)nn3C)cc2)cc1
IC50 (SW1353): > 2500 nM
IC50 [1]: 69 nM

Cn1nc(C(C)(C)C)cc1NC(=O)Nc1ccc(Sc2ccncc2)cc1
solubility [2]: 1660 µg/mL (≈ 4350 µM)
inhibition in vivo at 100 mg/kg (Mus musculus [3]): < 90%
inhibition in vivo at 50 mg/kg (Mus musculus [4]): < 77%
IC50 (SW1353): 95 nM
IC50 [1]: 13 nM
solubility [5]: 655 µg/mL (≈ 1720 µM)

Cn1nc(C(C)(C)C)cc1NC(=O)Nc1ccc(Cc2ccncc2)cc1
solubility [2]: 2000 µg/mL (≈ 5500 µM)
Activity (Mus musculus [6]): 0.7
Activity (Mus musculus [7]): 5.1 ng/mL
inhibition [8]: 17%
Activity (Mus musculus [9]): 19.8 ng/mL
Activity (Mus musculus [10]): 0.3
Activity (Mus musculus [11]): 0.78
inhibition [12]: 20%
IC50 [13]: 4.2 nM
IC50 [14]: 110 nM
inhibition [15]: 8%
inhibition in vivo at 10 mg/kg (Mus musculus [16]): -24.5%
inhibition in vivo at 50 mg/kg (Mus musculus [17]): < 86.5%
IO (Mus musculus [18]): 0.33
inhibition in vivo at 50 mg/kg (Mus musculus [4]): 84%
Activity (Mus musculus [19]): 1.4
inhibition [20]: 5%
inhibition [21]: 2%
IC50 (SW1353): 323 nM
inhibition [22]: 0%
inhibition [23]: 8%
Activity (Mus musculus [24]): 0.2
inhibition [25]: 7%
Activity (Mus musculus [26]): 1.9
inhibition [27]: 21%
Activity (Mus musculus [28]): 46.7 ng/mL
inhibition [29]: 3%
Activity (Mus musculus [30]): 0.38
inhibition in vivo at 20 mg/kg (Mus musculus [31]): < 47.1%
solubility [5]: 50 µg/mL (≈ 138 µM)
inhibition in vivo at 25 mg/kg (Mus musculus [32]): 60%
IC (Mus musculus [33]): 0.8

Cc1ccc(Oc2ccc(NC(=O)Nc3cc(C(C)(C)C)nn3C)cc2)cc1
IC50 [1]: 160 nM

CC(C)CC(=O)Nc1ccc(Oc2ccc(NC(=O)Nc3cc(C(C)(C)C)nn3C)cc2)cc1
IC50 (SW1353): 313 nM
IC50 [1]: 45 nM

Cn1nc(C(C)(C)C)cc1NC(=O)Nc1ccc(Oc2ccc(OCc3ccccc3)cc2)cc1
IC50 [1]: 110 nM

CC(=O)Nc1ccc(Oc2ccc(NC(=O)Nc3cc(C(C)(C)C)nn3C)cc2)cc1
IC50 [1]: 235 nM

Cn1nc(C(C)(C)C)cc1NC(=O)Nc1ccc(Cc2ccc(N)cc2)cc1
IC50 [1]: 290 nM

CC(=O)Nc1ccc(Cc2ccc(NC(=O)Nc3cc(C(C)(C)C)nn3C)cc2)cc1
IC50 [1]: 70 nM

Cn1nc(C(C)(C)C)cc1NC(=O)Nc1ccc(OCc2ccncc2)cc1
IC50 [1]: 260 nM

Cn1nc(C(C)(C)C)cc1NC(=O)Nc1ccc(CCc2ccncc2)cc1
IC50 [1]: 430 nM

Cn1nc(C(C)(C)C)cc1NC(=O)Nc1ccc(CSc2ccncc2)cc1
solubility [2]: 5160 µg/mL (≈ 13000 µM)
inhibition in vivo at 50 mg/kg (Mus musculus [4]): < 64%
IC50 (SW1353): 584 nM
inhibition in vivo at 10 mg/kg (Mus musculus [34]): -15%
IC50 [1]: 44 nM
solubility [5]: 322 µg/mL (≈ 814 µM)
inhibition in vivo at 25 mg/kg (Mus musculus [32]): 22%

Cn1nc(C(C)(C)C)cc1NC(=O)Nc1ccc(Oc2ccc(N)cc2)cc1
IC50 [1]: 310 nM

Cn1nc(C(C)(C)C)cc1NC(=O)Nc1ccc(SCc2ccncc2)cc1
IC50 [1]: 140 nM

Cn1nc(C(C)(C)C)cc1NC(=O)Nc1ccc(Sc2ccc(O)cc2)cc1
IC50 (SW1353): 1100 nM
IC50 [1]: 35 nM

C[S+]([O-])c1ccc(-c2nc(-c3ccc(F)cc3)c(-c3ccncc3)[nH]2)cc1 (stereo not given) [SB-203580]
IO (Mus musculus [35]): 0.25
IC (Mus musculus [36]): 0.63
inhibition in vivo at 10 mg/kg (Mus musculus [37]): -1.4%
Activity (Mus musculus [38]): 1
Activity (Mus musculus [39]): 13 ng/mL
Activity (Mus musculus [28]): 38 ng/mL
inhibition in vivo at 30 mg/kg (Mus musculus [40]): < 65.4%
inhibition in vivo at 100 mg/kg (Mus musculus [41]): 80%

Cn1nc(C(C)(C)C)cc1NC(=O)Nc1ccc(Oc2ccccc2)cc1
IC50 [1]: 270 nM

Cn1nc(C(C)(C)C)cc1NC(=O)Nc1ccc(Nc2ccncc2)cc1
IC50 [1]: 420 nM

CCCOc1ccc(Sc2ccc(NC(=O)Nc3cc(C(C)(C)C)nn3C)cc2)cc1
IC50 (SW1353): 235 nM
IC50 [1]: 57 nM

CCC(=O)Nc1ccc(Cc2ccc(NC(=O)Nc3cc(C(C)(C)C)nn3C)cc2)cc1
IC50 (SW1353): 1750 nM
IC50 [1]: 38 nM

CCOC(=O)Nc1ccc(Oc2ccc(NC(=O)Nc3cc(C(C)(C)C)nn3C)cc2)cc1
solubility [2]: 77 µg/mL (≈ 171 µM)
inhibition in vivo at 50 mg/kg (Mus musculus [4]): 16%
IC50 (SW1353): 87 nM
IC50 [1]: 33 nM
solubility [5]: 95 µg/mL (≈ 210 µM)

Cn1nc(C(C)(C)C)cc1NC(=O)Nc1ccc(Cc2ccc(NC(=O)OC(C)(C)C)cc2)cc1
IC50 (SW1353): 57 nM
IC50 [1]: 87 nM

Cn1nc(C(C)(C)C)cc1NC(=O)Nc1ccc(Oc2ccc(C(C)(C)C)cc2)cc1
IC50 [1]: 183 nM

CCC(=O)Nc1ccc(Oc2ccc(NC(=O)Nc3cc(C(C)(C)C)nn3C)cc2)cc1
IC50 (SW1353): 1060 nM
IC50 [1]: 69 nM
